In EPA's ToxRefDB 2:

Tests used:
[1] = system: dog; conditions: Chronic toxicity, beagle, Oral, Capsule, dose end: 52 week, group: systemic
[2] = system: rat; conditions: Prenatal developmental toxicity study, sprague dawley, Oral, Gavage/Intubation, dose end: 17 GD
[3] = system: mouse; conditions: Carcinogenicity, cd1, Oral, Feed, dose end: 80 week, group: systemic
[4] = system: rat; conditions: Subchronic oral toxicity in rodents, fischer, [Not Specified], dose end: 90 day, group: systemic
[5] = system: dog; conditions: Subchronic oral toxicity in nonrodent, beagle, Capsule, dose end: 90 day, group: systemic
[6] = system: mouse; conditions: Subchronic oral toxicity in rodents, cd1, Feed, dose end: 90 day, group: systemic
[7] = system: rat; conditions: Combined chronic toxicity/carcinogenicity, fischer, Oral, Feed, dose end: 104 week, group: systemic
[8] = system: rabbit; conditions: Prenatal developmental toxicity study, new zealand white, Oral, Gavage/Intubation, dose end: 18 GD
[9] = system: dog; conditions: Subchronic oral toxicity in nonrodent, beagle, Gavage/Intubation, dose end: 90 day, group: systemic, systemic / in life observation / clinical signs / defecation (diarrhea) + systemic / in life observation / clinical signs / motor activity…
[10] = system: mouse; conditions: Subchronic oral toxicity in rodents, cd1, Feed, dose end: 90 day, group: systemic, systemic / in life observation / body weight / body weight gain + systemic / in life observation / food consumption / food consumption + …
[11] = system: rat; conditions: Multigenerational reproductive toxicity study, sprague dawley, Oral, Feed, dose end: 2 generation
[12] = system: rabbit; conditions: Prenatal developmental toxicity study, new zealand white, Oral, Gavage/Intubation, dose end: 19 GD
[13] = system: mouse; conditions: Carcinogenicity, cd1, Oral, Feed, dose end: 80 week, group: systemic; remark: listed apart in the source
[14] = system: dog; conditions: Chronic toxicity, beagle, Oral, Gavage/Intubation, dose end: 12 month, group: systemic
[15] = system: rat; conditions: Prenatal developmental toxicity study, sprague dawley, Oral, Gavage/Intubation, dose end: 15 GD
[16] = system: rat; conditions: Subchronic oral toxicity in rodents, sprague dawley, Feed, dose end: 90 day, group: systemic
[17] = system: rat; conditions: Combined chronic toxicity/carcinogenicity, sprague dawley, Oral, Feed, dose end: 104 week, group: systemic
[18] = systemic / pathology gross / gallbladder / discolored + systemic / pathology microscopic / liver / hemosiderin laden macrophages
[19] = group: developmental, developmental / developmental malformation / bone / misshapen + developmental / developmental malformation / bone / supernumerary + …
[20] = group: maternal, systemic / in life observation / clinical signs / general pallor + systemic / in life observation / clinical signs / piloerection + systemic…
[21] = systemic / clinical chemistry / alanine aminotransferase (alt/sgpt) / alanine aminotransferase (alt/sgpt) + systemic / clinical chemistry / …
[22] = systemic / hematology / blood clotting / blood clotting - activated partial thromboplastin time + systemic / hematology / blood clotting / …
[23] = systemic / in life observation / body weight / body weight gain + systemic / in life observation / food consumption / food efficiency
[24] = systemic / in life observation / body weight / body weight gain + systemic / in life observation / food consumption / food efficiency + …
[25] = systemic / clinical chemistry / albumin / albumin + systemic / hematology / eosinophils / eosinophils + systemic / hematology / neutrophils…
[26] = systemic / hematology / eosinophils / eosinophils + systemic / hematology / neutrophils / neutrophils + systemic / organ weight / liver / …
[27] = systemic / urinalysis / appearance and color / appearance and color + systemic / pathology microscopic / pancreas / proliferation
[28] = group: developmental, developmental / developmental malformation / bone / full supernumerary
[29] = group: maternal, reproductive / reproductive performance / resorptions / resorptions + systemic / in life observation / body weight / body weight gain + …
[30] = group: offspring, systemic / in life observation / body weight / offspring (pup) weight + systemic / in life observation / body weight / offspring (pup) …
[31] = group: parental, systemic / in life observation / body weight / body weight
[32] = group: developmental, developmental / developmental malformation / bone / full supernumerary + developmental / developmental malformation / bone / incomplete …
[33] = group: maternal, systemic / in life observation / body weight / body weight + systemic / in life observation / body weight / body weight gain + systemic / in…
[34] = systemic / pathology gross / urinary bladder / distended
[35] = systemic / pathology gross / urinary bladder / distended + systemic / hematology / lymphocyte / lymphocyte + systemic / hematology / …
[36] = systemic / hematology / blood clotting / blood clotting - thromboplastin time + systemic / in life observation / body weight / body weight …
[37] = group: developmental, systemic / in life observation / body weight / fetal weight + systemic / in life observation / body weight / litter weight
[38] = systemic / in life observation / body weight / body weight + systemic / in life observation / body weight / body weight gain + systemic / in…
[39] = systemic / in life observation / body weight / body weight gain + systemic / organ weight / liver / relative to body weight
[40] = systemic / pathology microscopic / thyroid gland / adenoma + systemic / clinical chemistry / cholesterol / cholesterol + systemic / clinical…

CCCCCCCCCCCCC1=C(OC(C)=O)C(=O)c2ccccc2C1=O [Acequinocyl]
LOAEL ([1]; systemic / hematology / platelet / platelet + systemic / hematology / reticulocyte / reticulocyte): 20 mg/kg/day
NOAEL ([1]; systemic / hematology / platelet / platelet + systemic / hematology / reticulocyte / reticulocyte + systemic / clinical chemistry / albumin…): 5 mg/kg/day
LEL [1, 18]: 5 mg/kg/day
NEL [1, 18]: < 5 mg/kg/day
LEL [2, 19]: 750 mg/kg/day
LOAEL [2, 19]: 750 mg/kg/day
NEL [2, 19]: 500 mg/kg/day
NOAEL [2, 19]: 500 mg/kg/day
LEL [2, 20]: 500 mg/kg/day
LOAEL [2, 20]: 500 mg/kg/day
NEL [2, 20]: 150 mg/kg/day
NOAEL [2, 20]: 150 mg/kg/day
LEL [3, 21]: 2.7 mg/kg/day
NEL [3, 21]: < 2.7 mg/kg/day
NOAEL [3, 21]: 7 mg/kg/day
LOAEL ([3]; systemic / pathology microscopic / liver / fatty change + systemic / pathology microscopic / liver / vacuolization): 20.3 mg/kg/day
LEL ([4]; systemic / clinical chemistry / gamma glutamyl transpeptides (gtp) / gamma glutamyl transpeptides (gtp) + systemic / urinalysis / appearance…): 30.4 mg/kg/day
LOAEL [4, 22]: 120 mg/kg/day
NEL [4, 22]: 7.6 mg/kg/day
NOAEL [4, 22]: 30.4 mg/kg/day
LOAEL [5, 23]: 40 mg/kg/day
NOAEL [5, 23]: < 40 mg/kg/day
LEL [5, 24]: 40 mg/kg/day
NEL [5, 24]: < 40 mg/kg/day
LOAEL [6, 25]: 81 mg/kg/day
NOAEL [6, 25]: 16 mg/kg/day
LEL [6, 26]: 16 mg/kg/day
NEL [6, 26]: < 16 mg/kg/day
LOAEL ([7]; systemic / pathology gross / eye / enlarged): 9.02 mg/kg/day
NOAEL ([7]; systemic / pathology gross / eye / enlarged + systemic / in life observation / body weight / body weight + systemic / in life observation / …): 2.25 mg/kg/day
LEL [7, 27]: 2.92 mg/kg/day
NEL [7, 27]: < 2.92 mg/kg/day
LEL [8, 28]: 120 mg/kg/day
LOAEL [8, 28]: 120 mg/kg/day
NEL [8, 28]: 60 mg/kg/day
NOAEL [8, 28]: 60 mg/kg/day
LEL [8, 29]: 120 mg/kg/day
LOAEL [8, 29]: 120 mg/kg/day
NEL [8, 29]: 60 mg/kg/day
NOAEL [8, 29]: 60 mg/kg/day

Cc1cc(C)nc(Nc2ccccc2)n1 [Pyrimethanil]
LEL [9]: 800 mg/kg/day
LOAEL [9]: 800 mg/kg/day
NEL [9]: 80 mg/kg/day
NOAEL [9]: 80 mg/kg/day
LEL [10]: 1860 mg/kg/day
LOAEL [10]: 1860 mg/kg/day
NEL [10]: 139 mg/kg/day
NOAEL [10]: 139 mg/kg/day
LOAEL ([11]; group: offspring, systemic / in life observation / body weight / offspring (pup) weight): 294 mg/kg/day
LEL [11, 30]: 294 mg/kg/day
NEL [11, 30]: 23.1 mg/kg/day
NOAEL [11, 30]: 23.1 mg/kg/day
LEL [11, 31]: 1.9 mg/kg/day
NEL [11, 31]: < 1.9 mg/kg/day
LOAEL ([11]; group: parental, systemic / in life observation / body weight / body weight + systemic / in life observation / body weight / body weight gain): 294 mg/kg/day
NOAEL ([11]; group: parental, systemic / in life observation / body weight / body weight + systemic / in life observation / body weight / body weight gain + systemic / in…): 23.1 mg/kg/day
LEL [12, 32]: 300 mg/kg/day
LOAEL [12, 32]: 300 mg/kg/day
NEL [12, 32]: 45 mg/kg/day
NOAEL [12, 32]: 45 mg/kg/day
LOAEL [12, 33]: 300 mg/kg/day
NEL [12, 33]: 7 mg/kg/day
NOAEL [12, 33]: 45 mg/kg/day
LEL ([12]; group: maternal, systemic / in life observation / clinical signs / defecation): 45 mg/kg/day
LEL [13, 34]: 2 mg/kg/day
NEL [13, 34]: < 2 mg/kg/day
LOAEL [13, 35]: > 211 mg/kg/day
NOAEL [13, 35]: ≥ 211 mg/kg/day
NEL ([14]; systemic / hematology / blood clotting / blood clotting - thromboplastin time + systemic / hematology / neutrophils / neutrophils + systemic…): 2 mg/kg/day
LOAEL [14, 36]: 250 mg/kg/day
NOAEL [14, 36]: 30 mg/kg/day
LEL ([14]; systemic / in life observation / clinical signs / vomitting): 30 mg/kg/day
LEL [15, 37]: 1000 mg/kg/day
LOAEL [15, 37]: 1000 mg/kg/day
NEL [15, 37]: 85 mg/kg/day
NOAEL [15, 37]: 85 mg/kg/day
LOAEL ([15]; group: maternal, systemic / in life observation / body weight / body weight + systemic / in life observation / body weight / body weight gain): 1000 mg/kg/day
LEL [15, 33]: 1000 mg/kg/day
NEL [15, 33]: 85 mg/kg/day
NOAEL [15, 33]: 85 mg/kg/day
LOAEL [16, 38]: 529 mg/kg/day
NOAEL [16, 38]: 54.5 mg/kg/day
LEL [16, 39]: 6.8 mg/kg/day
NEL [16, 39]: < 6.8 mg/kg/day
LEL ([17]; systemic / clinical chemistry / gamma glutamyl transferase (ggt) / gamma glutamyl transferase (ggt) + systemic / organ weight / liver / …): 17 mg/kg/day
LOAEL [17, 40]: 221 mg/kg/day
NEL [17, 40]: 1.3 mg/kg/day
NOAEL [17, 40]: 17 mg/kg/day
